The values that follow are results of earlier work, collected in patent US11583521B2, “Long-acting injection dosage form of beta 3 adrenoreceptor agonists” (Jubilant Pharma Holdings Inc., priority 2020, dated 2023).

SMILES strings stand for the structures.

For data set [1] the following is noted: neutral to acidic pH.
The conditions of data set [2]: presence of food in the GI tract.

Turning to `Nc1nc(CC(=O)Nc2ccc(CCNC[C@H](O)c3ccccc3)cc2)cs1` [Mirabegron, (R)-2-(2-aminothiazol-4-yl)-4′-{2-[(2-hydroxy-2 phenylethyl)amino]ethyl}acetanilide], the solubility in water result in data set [1] is listed as “soluble in water between neutral to acidic pH”. Further, the “bioavailability, effect of food” value in data set [2] was “affected by the presence of food in the GI (Gastro-Intestinal) tract”.
